The text below walks through data of patent publication US5770565A, “Peptides for reducing or inhibiting bone resorption” (priority 1994, dated 1998).

One test relates to rat osteoclasts. The test can be described thus: rat osteoclast attachment assay compared with MG63 or NRK cell attachment. The conditions noted are these: FCS substrate, FIGS. 7 and 8. In kind it is cell-based. How it is done:
To determine the effect of a peptide on the attachment of rat osteoclasts in vitro, 100 μl aliquots of the rat pup bone cell suspension described in Example II.B.2., above, were added in triplicate to 96 well "MAXISORP" plates coated with specific substrates or with FCS. Substrate coated plates were used to determine the ability of peptides to inhibit attachment or induce detachment of an osteoclast from a ligand such as vitronectin, fibronectin, osteopontin or collagen I (Collaborative Research), which are ligands present in bone. Substrates were added to 96 well plates (50 μl of a 5-10 μg/ml solution in sodium carbonate, pH 9.5) and incubated for 2 hr at 37° C. For FCS control wells, 100 μl 10% FCS was added. Wells were aspirated, then washed 2×with PBS and blocked with 1% bovine serum albumin in PBS for 2 hr at 37° C. Wells were aspirated and washed again 2× with PBS. Cells were seeded in duplicate at 4×10^4 cells/well. […]
Following incubation, the medium and nonadherent cells were removed by aspiration from each well. […] Adherent osteoclasts were counted by light microscopy. […]
MG63 and NRK cell lines were purchased from ATTC (Rockville Md.). […] Following staining, the stain was extracted with 20% acetic acid and the OD562 of the extracted stain was determined. […]
Selectivity of a peptide can be determined by comparing the results of FIGS. 7 and 8 (see, also FIG. 2).

Another test deals with chick osteoclasts. The test can be described thus: chick osteoclast / total cell detachment assay. The conditions noted are these: FIG. 5. In kind it is cell-based. The protocol:
Peptides were evaluated for their ability to detach osteoclasts from a matrix consisting of serum-coated microtiter plates. In prescreening assays, 5 μM of the various RGD peptides was used to identify RGD peptides that released at least 60% of the osteoclasts from the matrix.
Osteoclasts were isolated from embryonic chicks using a modification of the methods of Boyde et al., Br. Dent. J. 156:216 (1984) and Chambers et al., Endocrinology 116:234 (1985), each of which is incorporated herein by reference. […]
The cells were incubated for 90 min at 37° C. in an atmosphere containing 10% CO2. […] Cell layers were stained for 5 min using 0.1% crystal violet and multinucleated osteoclasts were counted by light microscopy. […]
RGD peptides that are selective for releasing osteoclasts, but not the other cell types, from the matrix were identified by extracting the crystal violet stain from fixed cells and comparing the amount of staining in a control well (no peptide) with the amount of staining following incubation of the cells with an RGD peptide. Crystal violet was extracted using 20% acetic acid and the optical density of the resulting solution was measured in 96 well microtiter plates by spectrophotometry at 562 nm. […]

The test system of test [1] is αV β3 integrin, osteoclasts. The test can be described thus: series of assays of Example II for potency and selectivity (summary, FIG. 2). The source says:
Peptides of the RGDNTic (SEQ ID NO: 56) pharmacophore group are characterized, in general, as having increased potency, whereas the peptides of the pharmacophore RGDDV (SEQ ID NO: 1) group generally have higher receptor selectivity. […] As used herein, the term "potency" or "potent" means that a peptide of the invention is active at a relatively low concentration in the assays described in Examples II and III. A potent peptide of the invention can be identified, for example, using the assays described in Examples II and III.
Selectivity can be due, for example, to the ability of a peptide of the invention to bind to αV β3 with greater affinity than it binds to other integrins. Thus, in addition to having selectivity, for example, for osteoclast binding to a matrix, a peptide of the invention also can display receptor selectivity and, therefore, more specifically alter receptor-mediated binding to a matrix. As used herein, the term "receptor selectivity" means that a peptide of the invention can bind to one receptor with greater affinity than it can bind to another receptor.

Another test concerns Swiss-Webster mice. Put plainly: PTH-induced hypercalcemia assay. The format is in vivo. The conditions noted are these: single dose, infused 4 hr after PTH. The source says:
Parathyroid hormone (PTH) activates osteoclasts, which are involved in bone resorption. Associated with the increased osteoclast activity is an increase in serum calcium. The PTH-induced hypercalcemia assay measures the level of serum calcium, which is an indication of bone resorption in a subject (Fischer et al., Endocrinology 132:1411-1413 (1993), which is incorporated herein by reference).
Swiss-Webster mice, which had been parathyroidectomized two weeks prior to beginning the assay, were obtained from Taconic Lab Animals and Services (Germantown N.Y.). Femoral vein catheters (PE-50 fused with PE10 polyethylene tubing; Becton Dickinson; Parsippany, N.J.) were installed in the mice, flushed and locked with heparinized saline (1:10), sutured to adjacent muscle and internalized within the inguinal space of the incision before closing the incision with wound clips. […]
The experiment was initiated by feeding the mice a calcium-deficient diet overnight, then injecting the mice the following morning with a bolus of 0.2 mg PTH/kg (hPTH 1-34; Bachem; Torrance Calif.), intravenously. […] Various doses of a peptide or vehicle were infused into an animal for 4 hr, then ionized serum calcium again was measured. […] Serum calcium measurements were expressed as the difference between the value 30 min before the PTH pulse and 4 hr after peptide infusion was started. […]

Each structure is given as a SMILES string. Where a SMILES comes first, the peptide text is derived from it. Bridges are numbered along the chain shown (N, C = ends).

`CC(C)[C@@H]1NC(=O)[C@H](CC(=O)O)NC(=O)[C@H](CC(=O)O)NC(=O)CNC(=O)[C@H](CCCNC(=N)N)NC(=O)CC[C@@H](C(N)=O)NC1=O` [peptide 386, RGDDVE-NH2] (RGDDVE-NH2; lactam N-6): the “selectivity: osteoclast attachment versus MG63 or NRK attachment” value with rat osteoclasts was “selective”. Besides, the “selective detachment of osteoclasts as compared to other cell types” value in the test on chick osteoclasts is “selective detachment of osteoclasts”. In test [1], the “potency and selectivity together (summary classification)” value is “both potent and selective”; the “receptor selectivity (summary classification)” value is given as “particularly receptor selective”. In test [1] (FIG. 2), the “activity of peptides with minimally essential elements” value is given as “demonstrate activity”. In addition, the serum calcium level result with Swiss-Webster mice was “relatively low level of serum calcium”.
